Measurements reported in ChEMBL document CHEMBL4680157, “Design, synthesis and biological evaluation of novel TRβ selective agonists sustained by ADME-toxicity analysis” (Eur J Med Chem, 2020).

How the values were obtained:
[1] = Toxicity in F344 rat assessed as effect on serum bilirubin level at 100 ug per 100 g body weight, ig administered daily for 3 days (reference value: 1.4 +/- 0.2 mg/dl); conditions: in vivo, po, 72 h, dose 100 µg, time 3 day
[2] = Toxicity in F344 rat assessed as effect on serum bilirubin level at 75 ug per 100 g body weight, ig administered daily for 3 days (reference value: 1.4 +/- 0.2 mg/dl); conditions: in vivo, po, 72 h, dose 75 µg, time 3 day
[3] = Toxicity in F344 rat assessed as effect on serum glucose level at 75 ug per 100 g body weight, ip administered daily for 3 days (reference value: 151 +/- 13.5 mg/dl); format: organism-based; conditions: in vivo, 72 h, dose 75 µg, time 3 day
[4] = Toxicity in F344 rat assessed as effect on serum triglycerides level at 50 ug per 100 g body weight, ig administered daily for 3 days (reference value: 86.8 +/- 10.4 mg/dl); conditions: in vivo, po, 72 h, dose 50 µg, time 3 day
[5] = Toxicity in F344 rat assessed as effect on serum triglycerides level at 75 ug per 100 g body weight, ip administered daily for 3 days (reference value: 86.8 +/- 10.4 mg/dl); format: organism-based; conditions: in vivo, 72 h, dose 75 µg, time 3 day
[6] = Toxicity in F344 rat assessed as effect on serum ALT/GPT level at 50 ug per 100 g body weight, ig administered daily for 3 days (reference value: 46 +/- 4 U/L); conditions: in vivo, po, 72 h, dose 50 µg, time 3 day
[7] = biological target: T1, Thyroid hormone receptor alpha (Homo sapiens, UniProt P10827); assay: Agonist activity at TRalpha (unknown origin) by Lanthascreen TR-FRET assay
T1 sequence (P10827 whole entry): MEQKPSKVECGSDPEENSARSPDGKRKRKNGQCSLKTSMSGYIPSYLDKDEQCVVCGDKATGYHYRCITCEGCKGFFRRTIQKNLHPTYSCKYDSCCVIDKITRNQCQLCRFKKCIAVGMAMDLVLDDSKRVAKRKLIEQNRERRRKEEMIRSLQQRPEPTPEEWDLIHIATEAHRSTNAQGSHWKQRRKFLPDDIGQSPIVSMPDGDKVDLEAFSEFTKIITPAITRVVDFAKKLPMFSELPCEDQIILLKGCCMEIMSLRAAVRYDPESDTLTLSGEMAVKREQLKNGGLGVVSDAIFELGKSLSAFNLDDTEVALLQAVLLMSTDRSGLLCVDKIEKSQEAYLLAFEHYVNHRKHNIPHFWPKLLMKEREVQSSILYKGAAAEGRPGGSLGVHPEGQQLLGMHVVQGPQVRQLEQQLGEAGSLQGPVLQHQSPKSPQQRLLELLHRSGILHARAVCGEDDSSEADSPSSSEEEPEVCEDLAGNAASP

[8] = biological target: T2, Thyroid hormone receptor beta (Homo sapiens, UniProt P10828); assay: Agonist activity at TRbeta (unknown origin) by Lanthascreen TR-FRET assay
T2 sequence (P10828 whole entry): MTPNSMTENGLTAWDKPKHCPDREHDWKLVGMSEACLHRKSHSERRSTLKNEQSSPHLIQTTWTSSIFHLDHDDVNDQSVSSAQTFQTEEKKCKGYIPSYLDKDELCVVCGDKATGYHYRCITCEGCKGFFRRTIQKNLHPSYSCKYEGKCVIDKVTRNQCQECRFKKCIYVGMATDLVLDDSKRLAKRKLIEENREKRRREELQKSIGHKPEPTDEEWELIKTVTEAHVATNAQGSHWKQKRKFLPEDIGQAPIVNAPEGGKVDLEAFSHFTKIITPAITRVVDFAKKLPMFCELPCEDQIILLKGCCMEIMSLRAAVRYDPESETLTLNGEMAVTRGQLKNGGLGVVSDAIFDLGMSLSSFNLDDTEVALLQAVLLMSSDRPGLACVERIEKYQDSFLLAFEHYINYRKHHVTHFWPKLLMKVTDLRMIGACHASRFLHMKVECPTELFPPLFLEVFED

[9] = biological target: T3, TRalpha (thyroid hormone receptor alpha) (Homo sapiens, UniProt P10827); assay: Agonist activity at TRalpha (unknown origin) at 1 uM by Lanthascreen TR-FRET assay relative to control; conditions: read-out: Activity
T3 sequence (P10827 whole entry): T1 sequence (P10827 whole entry)

EC50 [7] [nM] | EC50 [8] [nM] | activity at 1 µM [9] [%] | SMILES | Activity [1] [mg/dL] | Activity [2] [mg/dL] | Activity [3] [mg/dL] | Activity [4] [mg/dL] | Activity [5] [mg/dL] | Activity [6] [U/L]
 |  |  | CC(=O)Nc1ccc(Cc2c(C)cc(OCC(=O)O)cc2C)cc1C(C)C | 1.1 | 0.9 | 132 | 70.4 | 74.2 | 46
54 | 32 |  | Cc1cc(OCC(=O)O)cc(C)c1Cc1ccc(O)cc1 |  |  |  |  |  | 
 |  | 30 | Cc1cc(OCC(=O)O)cc(C)c1Cc1ccc(N)c(C(C)C)c1 | 1 | 1.6 | 129 | 68.3 | 79.6 | 41
